66 compounds from ChEMBL document CHEMBL3044820, “Evaluation of Benzenesulfonanilide Derivatives for the Control of Crucifers Clubroot” (1996) can be followed below.

Common to all, as to format: functional
For experiment [1], the system named is Plasmodiophora brassicae. The experiment is described as follows: Fungicidal activity against clubroot disease causing Plasmodiophora brassicae infested Brassica campestris under greenhouse condition assessed as disease incidence at 2 kg a.i/ha treated to soil measured after 40 to 50 days.
Experiment [2] concerns Plasmodiophora brassicae. The experiment is described as follows: Fungicidal activity against clubroot disease causing Plasmodiophora brassicae infested Brassica campestris under greenhouse condition assessed as disease incidence at 0.5 kg a.i/ha treated to soil measured after 40 to 50 days.
Experiment [3] relates to Plasmodiophora brassicae. Put plainly: Fungicidal activity against clubroot disease causing Plasmodiophora brassicae infested Brassica campestris under greenhouse condition assessed as disease incidence at 4 kg a.i/ha treated to soil measured after 40 to 50 days.

Each structure is given as a SMILES string. Some results are limits rather than exact numbers.

For `O=[N+]([O-])c1ccc(NS(=O)(=O)c2cccc(C(F)(F)F)c2)c(Cl)c1`, the Activity in the experiment with Plasmodiophora brassicae [1], in the experiment with Plasmodiophora brassicae [2] and in the experiment on Plasmodiophora brassicae [3] was above 91% in each case. `Cc1cc([N+](=O)[O-])ccc1NS(=O)(=O)c1ccc(C)c([N+](=O)[O-])c1`: the Activity with Plasmodiophora brassicae [1] and in the experiment with Plasmodiophora brassicae [3] was 0% each time.

In the case of `Cc1cc([N+](=O)[O-])ccc1NS(=O)(=O)c1cc(C(F)(F)F)ccc1Cl`, the Activity in the experiment on Plasmodiophora brassicae [1] was above 91%; with Plasmodiophora brassicae [2], 0%; in the experiment on Plasmodiophora brassicae [3], above 91%. For the compound `O=[N+]([O-])c1ccc(NS(=O)(=O)c2ccccc2)c(Cl)c1`, the Activity is 0% with Plasmodiophora brassicae [1] and above 91% with Plasmodiophora brassicae [3].

Turning to `O=[N+]([O-])c1ccc(NS(=O)(=O)c2cc(Cl)ccc2Cl)c(Cl)c1`, the Activity in the experiment on Plasmodiophora brassicae [1] is recorded as above 91%; in the experiment on Plasmodiophora brassicae [2], 26%; in the experiment with Plasmodiophora brassicae [3] it was above 91%. For the compound `Cc1ccc(S(=O)(=O)Nc2ccc([N+](=O)[O-])cc2Cl)cc1[N+](=O)[O-]`, the Activity with Plasmodiophora brassicae [1] is given as above 91%; with Plasmodiophora brassicae [2], 26%; in the experiment on Plasmodiophora brassicae [3], above 91%. As to `O=[N+]([O-])c1cc(Cl)c(NS(=O)(=O)c2ccc(Cl)cc2)c(Cl)c1`, the figures for the Activity in the experiment with Plasmodiophora brassicae [1], in the experiment with Plasmodiophora brassicae [2] and in the experiment with Plasmodiophora brassicae [3] were above 91%, 0% and above 91%, respectively. `COc1ccc([N+](=O)[O-])cc1NS(=O)(=O)c1cccc([N+](=O)[O-])c1`: the Activity in the experiment on Plasmodiophora brassicae [3] is 0%. As to `O=[N+]([O-])c1ccc(NS(=O)(=O)c2ccccc2[N+](=O)[O-])cc1`, the figures for the Activity in the experiment with Plasmodiophora brassicae [1] and with Plasmodiophora brassicae [3] were 0% and 51%, respectively. For `Cc1ccc(C)c(S(=O)(=O)Nc2ccc([N+](=O)[O-])cc2C)c1`, the Activity in the experiment with Plasmodiophora brassicae [1] is given as 26%; in the experiment on Plasmodiophora brassicae [3], above 91%. For `N#Cc1cccc(S(=O)(=O)Nc2ccc([N+](=O)[O-])cc2Cl)c1`, the Activity in the experiment with Plasmodiophora brassicae [1] and with Plasmodiophora brassicae [3] was 0% each time. For the compound `Cc1ccc([N+](=O)[O-])cc1NS(=O)(=O)c1ccc(Cl)c([N+](=O)[O-])c1`, the Activity in the experiment on Plasmodiophora brassicae [3] stood at 0%. As to `O=[N+]([O-])c1ccc(NS(=O)(=O)c2cc(C(F)(F)F)ccc2Cl)c(Cl)c1`, the Activity is above 91% in the experiment on Plasmodiophora brassicae [1], 51% with Plasmodiophora brassicae [2] and above 91% in the experiment on Plasmodiophora brassicae [3]. As to `Cc1ccc(S(=O)(=O)Nc2ccc(Br)cc2)cc1`, in the experiment with Plasmodiophora brassicae [3], the Activity amounted to 0%.

For `N#Cc1ccc(NS(=O)(=O)c2cccc(C(F)(F)F)c2)c(Cl)c1`, the values for the Activity with Plasmodiophora brassicae [1], in the experiment with Plasmodiophora brassicae [2] and with Plasmodiophora brassicae [3] were 51%, 0% and above 91%, respectively.

For `Cc1cc([N+](=O)[O-])ccc1NS(=O)(=O)c1cc(Cl)ccc1Cl`, the results for the Activity in the experiment with Plasmodiophora brassicae [1], in the experiment with Plasmodiophora brassicae [2] and with Plasmodiophora brassicae [3] were above 91%, 51% and above 91%, respectively. Regarding `O=[N+]([O-])c1ccc(NS(=O)(=O)c2ccc([N+](=O)[O-])cc2)cc1`, the Activity in the experiment with Plasmodiophora brassicae [1] and in the experiment on Plasmodiophora brassicae [3] was 0% each time.

For the compound `CCOC(=O)c1ccc(NS(=O)(=O)c2ccc(Cl)cc2)c(Cl)c1`, the Activity in the experiment with Plasmodiophora brassicae [3] is on record as 0%. Same read-out and setting: next, `N#Cc1cccc(S(=O)(=O)Nc2ccc(Cl)cc2Cl)c1`: 0%. As to `Cc1cc([N+](=O)[O-])ccc1NS(=O)(=O)c1cccc(C#N)c1`, the Activity in the experiment with Plasmodiophora brassicae [1] and in the experiment with Plasmodiophora brassicae [3] was 0% each time. For the compound `COc1ccc([N+](=O)[O-])cc1NS(=O)(=O)c1ccc([N+](=O)[O-])cc1`, in the experiment with Plasmodiophora brassicae [3], the Activity was determined as 0%. Consider `O=S(=O)(Nc1ccc(C(F)(F)F)cc1Cl)c1ccc(Cl)c(Cl)c1`, for which the Activity with Plasmodiophora brassicae [1] is above 91%; in the experiment with Plasmodiophora brassicae [2], 51%; in the experiment on Plasmodiophora brassicae [3] it was above 91%. Take `N#Cc1ccc(NS(=O)(=O)c2cccc(C(F)(F)F)c2)cc1`: the Activity in the experiment with Plasmodiophora brassicae [3] is 0%. As to `O=S(=O)(Nc1ccc(C(F)(F)F)cc1)c1cccc(C(F)(F)F)c1`, the Activity with Plasmodiophora brassicae [3] came to 0%. Still for that read-out and setting: the value for `Cc1ccc(S(=O)(=O)Nc2cccc([N+](=O)[O-])c2)cc1[N+](=O)[O-]` was 0%. Consider `O=S(=O)(Nc1ccc(C(F)(F)F)cc1Cl)c1cc(C(F)(F)F)ccc1Cl`, for which the Activity with Plasmodiophora brassicae [1], with Plasmodiophora brassicae [2] and in the experiment on Plasmodiophora brassicae [3] was above 91% throughout. Regarding `Cc1ccc(S(=O)(=O)Nc2cc([N+](=O)[O-])ccc2Cl)cc1[N+](=O)[O-]`, the Activity in the experiment on Plasmodiophora brassicae [1] is given as 0%; with Plasmodiophora brassicae [3], 26%.

As to `Cc1ccc([N+](=O)[O-])cc1S(=O)(=O)Nc1ccc([N+](=O)[O-])cc1Cl`, the Activity with Plasmodiophora brassicae [1] is above 91%; in the experiment with Plasmodiophora brassicae [2] it was 0%; in the experiment on Plasmodiophora brassicae [3], above 91%.

Regarding `Cc1ccc([N+](=O)[O-])cc1NS(=O)(=O)c1ccc(C)c([N+](=O)[O-])c1`, in the experiment on Plasmodiophora brassicae [3], the Activity amounted to 0%. On to `Cc1ccc(S(=O)(=O)Nc2ccc([N+](=O)[O-])cc2Cl)c(C)c1`, for which the Activity in the experiment with Plasmodiophora brassicae [1] is on record as above 91%; in the experiment with Plasmodiophora brassicae [2], 0%; in the experiment on Plasmodiophora brassicae [3] it was above 91%. Turning to `Cc1ccc(S(=O)(=O)Nc2ccc(C(F)(F)F)cc2Cl)cc1`, the Activity in the experiment on Plasmodiophora brassicae [1] is 0%; with Plasmodiophora brassicae [3], 51%. Turning to `O=[N+]([O-])c1cccc(NS(=O)(=O)c2ccccc2[N+](=O)[O-])c1`, the Activity in the experiment with Plasmodiophora brassicae [3] is recorded as 0%. Turning to `Cc1ccc(C)c(S(=O)(=O)Nc2ccc([N+](=O)[O-])cc2Cl)c1`, the Activity was above 91% in the experiment on Plasmodiophora brassicae [1], 0% with Plasmodiophora brassicae [2] and above 91% in the experiment with Plasmodiophora brassicae [3]. Turning to `N#Cc1cccc(S(=O)(=O)Nc2ccc(C(F)(F)F)cc2)c1`, the Activity in the experiment with Plasmodiophora brassicae [1] was determined as 0%; in the experiment on Plasmodiophora brassicae [3] it was 26%. As for `CN(C)C(=O)c1ccc(NS(=O)(=O)c2cccc(C(F)(F)F)c2)c(Cl)c1`, in the experiment with Plasmodiophora brassicae [3], the Activity was 0%. `O=[N+]([O-])c1cc(Cl)c(NS(=O)(=O)c2ccccc2)c(Cl)c1`: the Activity with Plasmodiophora brassicae [1] is recorded as 0%; in the experiment on Plasmodiophora brassicae [3], above 91%.

Turning to `CN(C)C(=O)c1ccc(NS(=O)(=O)c2cccc(C(F)(F)F)c2)cc1`, in the experiment on Plasmodiophora brassicae [3], the Activity amounted to 0%. In the case of `Cc1cc([N+](=O)[O-])ccc1NS(=O)(=O)c1ccc(Cl)c(C(F)(F)F)c1`, the figures for the Activity with Plasmodiophora brassicae [1], in the experiment with Plasmodiophora brassicae [2] and in the experiment with Plasmodiophora brassicae [3] were above 91%, 26% and above 91%, respectively. As for `O=[N+]([O-])c1ccc(NS(=O)(=O)c2ccc(Cl)c(Cl)c2)c(Cl)c1`, the Activity with Plasmodiophora brassicae [1] is recorded as 26%; in the experiment with Plasmodiophora brassicae [3], above 91%. Consider `O=S(=O)(Nc1ccc(C(F)(F)F)cc1Cl)c1ccc(Cl)c(C(F)(F)F)c1`, for which the Activity in the experiment on Plasmodiophora brassicae [1] was above 91%; in the experiment with Plasmodiophora brassicae [2] it was 26%; in the experiment on Plasmodiophora brassicae [3], above 91%. Turning to `Cc1ccc(S(=O)(=O)Nc2ccc(F)cc2)cc1`, the Activity with Plasmodiophora brassicae [3] turned out to be 0%. Same read-out and setting: the value for `O=[N+]([O-])c1ccc(S(=O)(=O)Nc2cccc([N+](=O)[O-])c2)cc1` was 0%.

For `O=[N+]([O-])c1ccc(S(=O)(=O)Nc2ccc([N+](=O)[O-])cc2Cl)cc1`, the Activity with Plasmodiophora brassicae [1] and in the experiment with Plasmodiophora brassicae [3] was 0% each time. As for `O=[N+]([O-])c1cccc(S(=O)(=O)Nc2ccc([N+](=O)[O-])cc2Cl)c1`, the values for the Activity in the experiment with Plasmodiophora brassicae [1] and with Plasmodiophora brassicae [3] were 26% and 71%, respectively. The matching figures for `Cc1ccc(S(=O)(=O)Nc2ccc([N+](=O)[O-])cc2)cc1[N+](=O)[O-]`: 0% and 26%.

Turning to `O=S(=O)(Nc1ccccc1Cl)c1cc(C(F)(F)F)ccc1Cl`, the Activity in the experiment with Plasmodiophora brassicae [3] amounted to 0%. On to `Cc1ccc(S(=O)(=O)Nc2c(C)cccc2[N+](=O)[O-])cc1[N+](=O)[O-]`, for which the Activity is listed as 0% with Plasmodiophora brassicae [1] and 26% in the experiment on Plasmodiophora brassicae [3]. Take `COC(=O)c1ccc(NS(=O)(=O)c2ccc(Cl)c(C(F)(F)F)c2)c(Cl)c1`: in the experiment with Plasmodiophora brassicae [3], the Activity is on record as 0%. In the case of `Cc1ccc(NS(=O)(=O)c2ccc([N+](=O)[O-])cc2)c([N+](=O)[O-])c1`, the Activity in the experiment on Plasmodiophora brassicae [3] was 0%. On the same count and under the same terms, next, `O=[N+]([O-])c1cccc(NS(=O)(=O)c2cccc([N+](=O)[O-])c2)c1`: 0%; `Cc1ccc(NS(=O)(=O)c2ccc(C)c([N+](=O)[O-])c2)c([N+](=O)[O-])c1`: 0%. In the case of `N#Cc1cccc(S(=O)(=O)Nc2ccc(C(F)(F)F)cc2Cl)c1`, the Activity with Plasmodiophora brassicae [1] worked out at 0%; with Plasmodiophora brassicae [3] it was 51%. The matching figures for `Cc1cc([N+](=O)[O-])ccc1NS(=O)(=O)c1ccc([N+](=O)[O-])cc1`: 0% and 0%.

On to `O=[N+]([O-])c1ccc(NS(=O)(=O)c2ccc(Cl)cc2)c(Cl)c1`, for which the Activity with Plasmodiophora brassicae [1] and with Plasmodiophora brassicae [3] was above 91% throughout. For the compound `COC(=O)c1ccc(NS(=O)(=O)c2ccc(Cl)c(Cl)c2)c(Cl)c1`, the Activity in the experiment with Plasmodiophora brassicae [3] worked out at 0%. The same measure, in the same setting: next, `COc1ccc([N+](=O)[O-])cc1NS(=O)(=O)c1ccccc1[N+](=O)[O-]`: 0%.

As to `Cc1ccc(S(=O)(=O)Nc2ccc(F)c([N+](=O)[O-])c2)cc1[N+](=O)[O-]`, the Activity with Plasmodiophora brassicae [1] was found to be 26%; in the experiment on Plasmodiophora brassicae [3] it was 51%. `Cc1ccc([N+](=O)[O-])cc1NS(=O)(=O)c1ccc([N+](=O)[O-])cc1`: the Activity in the experiment with Plasmodiophora brassicae [3] is 0%.

With `Cc1ccc(S(=O)(=O)Nc2ccc([N+](=O)[O-])cc2C)c(C)c1`, the Activity in the experiment with Plasmodiophora brassicae [1] and in the experiment on Plasmodiophora brassicae [3] was 0% each time. As for `Cc1ccc(S(=O)(=O)Nc2ccc([N+](=O)[O-])cc2C)cc1`, the Activity in the experiment on Plasmodiophora brassicae [1] and with Plasmodiophora brassicae [3] was 0% each time. With `Cc1cc([N+](=O)[O-])ccc1NS(=O)(=O)c1ccc(Cl)cc1`, the Activity in the experiment with Plasmodiophora brassicae [1] was 0%; in the experiment on Plasmodiophora brassicae [3] it was above 91%.

`CCOC(=O)c1ccc(NS(=O)(=O)c2cccc(C(F)(F)F)c2)cc1`: the Activity with Plasmodiophora brassicae [1] and in the experiment with Plasmodiophora brassicae [3] was 0% throughout. Turning to `COC(=O)c1ccc(NS(=O)(=O)c2cccc(C(F)(F)F)c2)cc1`, the Activity with Plasmodiophora brassicae [3] was 0%. In the case of `CCCOC(=O)c1ccc(NS(=O)(=O)c2cccc(C(F)(F)F)c2)cc1`, the Activity with Plasmodiophora brassicae [1] and with Plasmodiophora brassicae [3] was 0% throughout. As to `N#Cc1ccc(NS(=O)(=O)c2ccc(Cl)c(Cl)c2)cc1`, the Activity with Plasmodiophora brassicae [3] is 0%. On the same count and under the same terms, next, `CN(C)C(=O)c1ccc(NS(=O)(=O)c2ccc(Cl)c(Cl)c2)c(Cl)c1`: 0%.
